In patent US9695155B2, “Herbicidal substituted pyrimidinyloxy benzene compounds” (E. I. DU PONT DE NEMOURS AND COMPANY, priority 2013, dated 2017):

Tests used:
corn [1] = assay: Test A preemergence; format: in vivo, Zea mays; details: for Corn plant response rating: 500 g ai/ha
Procedure, shortened: (§1)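 Injury scores run from 0, no effect, to 100, complete control, judged by eye against untreated plants roughly 10 days after treatment. Chemicals carried a surfactant in a non-phytotoxic solvent and went onto loam–sand soil preemergence or onto one- to two-leaf seedlings postemergence.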

barnyardgrass [2] = assay: Test A postemergence; format: in vivo, Echinochloa crus-galli
Procedure, shortened: as §1

rice = assay: Test B flooded paddy test; format: in vivo, Oryza sativa; details: Flood, 250 g ai/ha; 0 to 100 scale where 0 is no effect and 100 is complete control
Procedure, shortened: (§2)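 Evaluation is visual, against untreated controls, 13 to 15 days after treatment. Before treatment, plants reached the 2-leaf stage; pots were then flooded 3 cm deep, compound was added to the water, and that level was maintained. Ratings run 0 to 100, with 100 meaning complete control.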

large (Lg) crabgrass [3] = assay: Test A postemergence; format: in vivo, Digitaria sanguinalis
Procedure, shortened: as §1

pigweed [4] = assay: Test A preemergence; format: in vivo, Amaranthus retroflexus
Procedure, shortened: as §1

sedge, umbrella = assay: Test B flooded paddy test; format: in vivo, Cyperus difformis; details: Flood, 250 g ai/ha; 0 to 100 scale where 0 is no effect and 100 is complete control
Procedure, shortened: as §2

wheat [5] = assay: Test A preemergence; format: in vivo, Triticum aestivum
Procedure, shortened: as §1

corn [6] = assay: Test A postemergence; format: in vivo, Zea mays
Procedure, shortened: as §1

velvetleaf [7] = assay: Test A postemergence; format: in vivo, Abutilon theophrasti
Procedure, shortened: as §1

pigweed [8] = assay: Test A postemergence; format: in vivo, Amaranthus retroflexus
Procedure, shortened: as §1

giant foxtail [9] = assay: Test A postemergence; format: in vivo, Setaria faberii
Procedure, shortened: as §1

barnyardgrass [10] = assay: Test B flooded paddy test; format: in vivo, Echinochloa crus-galli; details: Flood, 250 g ai/ha; 0 to 100 scale where 0 is no effect and 100 is complete control
Procedure, shortened: as §2

Heteranthera limosa = assay: Test B flooded paddy test; format: in vivo; details: Flood, 250 g ai/ha; 0 to 100 scale where 0 is no effect and 100 is complete control
Procedure, shortened: as §2

morningglory [11] = assay: Test A postemergence; format: in vivo, Ipomoea spp.
Procedure, shortened: as §1

barnyardgrass [12] = assay: Test A preemergence; format: in vivo, Echinochloa crus-galli; details: for Barnyardgrass plant response rating: 500 g ai/ha
Procedure, shortened: as §1

wheat [13] = assay: Test A postemergence; format: in vivo, Triticum aestivum
Procedure, shortened: as §1

velvetleaf [14] = assay: Test A preemergence; format: in vivo, Abutilon theophrasti
Procedure, shortened: as §1

giant foxtail [15] = assay: Test A preemergence; format: in vivo, Setaria faberii
Procedure, shortened: as §1

large (Lg) crabgrass [16] = assay: Test A preemergence; format: in vivo, Digitaria sanguinalis; details: for Crabgrass, Large plant response rating: 500 g ai/ha
Procedure, shortened: as §1

morningglory [17] = assay: Test A preemergence; format: in vivo, Ipomoea spp.
Procedure, shortened: as §1

[18] = 1000 g ai/ha, 0 to 100 scale, 0 no effect, 100 complete control
[19] = 1000 g ai/ha, 0 to 100 scale, 0 no effect, 100 complete control, approx. 10 days
[20] = 0 to 100 scale where 0 is no effect and 100 is complete control
[21] = 125 g ai/ha, 0 to 100 scale where 0 is no effect and 100 is complete control
[22] = 500 g ai/ha, 0 to 100 scale where 0 is no effect and 100 is complete control
[23] = 0 to 100 scale, 0 no effect, 100 complete control, approx. 10 days
[24] = 500 g ai/ha, 0 to 100 scale, 0 no effect, 100 complete control
[25] = 500 g ai/ha, 0 to 100 scale, 0 no effect, 100 complete control, approx. 10 days

SMILES: Clc1cnc(Oc2cccc(I)c2-n2cc(Br)cn2)nc1 [Compound 66]
- Plant response rating, Corn (corn [1]; [18]): 30
- Plant response rating, Barnyardgrass (barnyardgrass [2]; [18]): 80
- Plant response rating, Rice (rice): 0
- Plant response rating, Crabgrass, Large (large (Lg) crabgrass [3]; [18]): 100
- Pigweed plant response rating (pigweed [4]; [19]): 100
- Plant response rating, Sedge, Umbrella (sedge, umbrella): 0
- Wheat plant response rating (wheat [5]; [19]): 10
- Plant response rating, Corn (corn [6]; [18]): 40
- Plant response rating, Velvetleaf (velvetleaf [7]; [18]): 100
- Plant response rating, Pigweed (pigweed [8]; [18]): 100
- Plant response rating, Foxtail, Giant (giant foxtail [9]; [18]): 100
- Plant response rating, Barnyardgrass (barnyardgrass [10]): 0
- Plant response rating, Ducksalad (Heteranthera limosa): 30
- Plant response rating, Morningglory (morningglory [11]; [18]): 100
- Plant response rating, Barnyardgrass (barnyardgrass [12]; [18]): 90
- Plant response rating, Wheat (wheat [13]; [18]): 20
- Velvetleaf plant response rating (velvetleaf [14]; [19]): 90
- Foxtail, Giant plant response rating (giant foxtail [15]; [19]): 100
- Plant response rating, Crabgrass, Large (large (Lg) crabgrass [16]; [18]): 100
- Morningglory plant response rating (morningglory [17]; [19]): 40

SMILES: C#Cc1cccc(Oc2ncc(Cl)cn2)c1-n1cc(Br)cn1 [Compound 199]
- Corn plant response rating (0 to 100 scale) (corn [1]; 125 g ai/ha): 0
- Corn plant response rating (corn [1]; [20]): 0
- Barnyardgrass plant response rating (barnyardgrass [2]; [21]): 30
- Plant response rating, Barnyardgrass (barnyardgrass [2]; [22]): 80
- Plant response rating, Rice (rice): 20
- Crabgrass, Large plant response rating (large (Lg) crabgrass [3]; [21]): 40
- Plant response rating, Crabgrass, Large (large (Lg) crabgrass [3]; [22]): 90
- Pigweed plant response rating (0 to 100 scale) (pigweed [4]; 125 g ai/ha): 90
- Pigweed plant response rating (pigweed [4]; [22]): 100
- Plant response rating, Sedge, Umbrella (sedge, umbrella): 70
- Wheat plant response rating (0 to 100 scale) (wheat [5]; 125 g ai/ha): 0
- Wheat plant response rating (wheat [5]; [22]): 0
- Corn plant response rating (corn [6]; [21]): 20
- Plant response rating, Corn (corn [6]; [22]): 60
- Velvetleaf plant response rating (velvetleaf [7]; [21]): 70
- Plant response rating, Velvetleaf (velvetleaf [7]; [22]): 100
- Pigweed plant response rating (pigweed [8]; [21]): 80
- Plant response rating, Pigweed (pigweed [8]; [22]): 100
- Foxtail, Giant plant response rating (giant foxtail [9]; [21]): 70
- Plant response rating, Foxtail, Giant (giant foxtail [9]; [22]): 90
- Plant response rating, Barnyardgrass (barnyardgrass [10]): 0
- Plant response rating, Ducksalad (Heteranthera limosa): 70
- Morningglory plant response rating (morningglory [11]; [21]): 40
- Plant response rating, Morningglory (morningglory [11]; [22]): 60
- Barnyardgrass plant response rating (0 to 100 scale, 0 is no effect, 100 is complete control) (barnyardgrass [12]; 125 g ai/ha): 20
- Barnyardgrass plant response rating (barnyardgrass [12]; [20]): 80
- Wheat plant response rating (wheat [13]; [21]): 0
- Plant response rating, Wheat (wheat [13]; [22]): 30
- Velvetleaf plant response rating (0 to 100 scale) (velvetleaf [14]; 125 g ai/ha): 20
- Velvetleaf plant response rating (velvetleaf [14]; [22]): 90
- Foxtail, Giant plant response rating (0 to 100 scale) (giant foxtail [15]; 125 g ai/ha): 90
- Foxtail, Giant plant response rating (giant foxtail [15]; [22]): 100
- Crabgrass, Large plant response rating (0 to 100 scale) (large (Lg) crabgrass [16]; 125 g ai/ha): 100
- Crabgrass, Large plant response rating (large (Lg) crabgrass [16]; [20]): 100
- Morningglory plant response rating (0 to 100 scale) (morningglory [17]; 125 g ai/ha): 0
- Morningglory plant response rating (morningglory [17]; [22]): 20

SMILES: Clc1cnc(Oc2cc(Cl)ccc2-n2cccn2)nc1 [Compound 49]
- Plant response rating, Corn (corn [1]; [21]): 0
- Corn plant response rating (corn [1]; [23]): 0
- Plant response rating, Barnyardgrass (barnyardgrass [2]; [21]): 0
- Plant response rating, Barnyardgrass (barnyardgrass [2]; [24]): 10
- Plant response rating, Rice (rice): 0
- Plant response rating, Crabgrass, Large (large (Lg) crabgrass [3]; [21]): 0
- Plant response rating, Crabgrass, Large (large (Lg) crabgrass [3]; [24]): 10
- Plant response rating, Pigweed (pigweed [4]; [21]): 0
- Pigweed plant response rating (pigweed [4]; [25]): 0
- Plant response rating, Sedge, Umbrella (sedge, umbrella): 0
- Plant response rating, Wheat (wheat [5]; [21]): 0
- Wheat plant response rating (wheat [5]; [25]): 0
- Plant response rating, Corn (corn [6]; [21]): 0
- Plant response rating, Corn (corn [6]; [24]): 0
- Plant response rating, Velvetleaf (velvetleaf [7]; [21]): 10
- Plant response rating, Velvetleaf (velvetleaf [7]; [24]): 30
- Plant response rating, Pigweed (pigweed [8]; [21]): 0
- Plant response rating, Pigweed (pigweed [8]; [24]): 40
- Plant response rating, Foxtail, Giant (giant foxtail [9]; [21]): 0
- Plant response rating, Foxtail, Giant (giant foxtail [9]; [24]): 10
- Plant response rating, Barnyardgrass (barnyardgrass [10]): 0
- Plant response rating, Ducksalad (Heteranthera limosa): 0
- Plant response rating, Morningglory (morningglory [11]; [21]): 0
- Plant response rating, Morningglory (morningglory [11]; [24]): 20
- Plant response rating, Barnyardgrass (barnyardgrass [12]; [21]): 0
- Barnyardgrass plant response rating (barnyardgrass [12]; [23]): 0
- Plant response rating, Wheat (wheat [13]; [21]): 0
- Plant response rating, Wheat (wheat [13]; [24]): 0
- Plant response rating, Velvetleaf (velvetleaf [14]; [21]): 0
- Velvetleaf plant response rating (velvetleaf [14]; [25]): 20
- Plant response rating, Foxtail, Giant (giant foxtail [15]; [21]): 0
- Foxtail, Giant plant response rating (giant foxtail [15]; [25]): 10
- Plant response rating, Crabgrass, Large (large (Lg) crabgrass [16]; [21]): 0
- Crabgrass, Large plant response rating (large (Lg) crabgrass [16]; [23]): 20
- Plant response rating, Morningglory (morningglory [17]; [21]): 0
- Morningglory plant response rating (morningglory [17]; [25]): 0

SMILES: Clc1cnc(Oc2ccccc2-n2ccc(Br)n2)nc1 [Compound 21]
- Plant response rating, Corn (corn [1]; [21]): 0
- Corn plant response rating (corn [1]; [23]): 0
- Plant response rating, Barnyardgrass (barnyardgrass [2]; [21]): 0
- Plant response rating, Barnyardgrass (barnyardgrass [2]; [24]): 40
- Plant response rating, Rice (rice): 15
- Plant response rating, Crabgrass, Large (large (Lg) crabgrass [3]; [21]): 20
- Plant response rating, Crabgrass, Large (large (Lg) crabgrass [3]; [24]): 50
- Plant response rating, Pigweed (pigweed [4]; [21]): 90
- Pigweed plant response rating (pigweed [4]; [25]): 100
- Plant response rating, Sedge, Umbrella (sedge, umbrella): 70
- Plant response rating, Wheat (wheat [5]; [21]): 0
- Wheat plant response rating (wheat [5]; [25]): 0
- Plant response rating, Corn (corn [6]; [21]): 0
- Plant response rating, Corn (corn [6]; [24]): 30
- Plant response rating, Velvetleaf (velvetleaf [7]; [21]): 50
- Plant response rating, Velvetleaf (velvetleaf [7]; [24]): 80
- Plant response rating, Pigweed (pigweed [8]; [21]): 90
- Plant response rating, Pigweed (pigweed [8]; [24]): 100
- Plant response rating, Foxtail, Giant (giant foxtail [9]; [21]): 30
- Plant response rating, Foxtail, Giant (giant foxtail [9]; [24]): 90
- Plant response rating, Barnyardgrass (barnyardgrass [10]): 25
- Plant response rating, Ducksalad (Heteranthera limosa): 40
- Plant response rating, Morningglory (morningglory [11]; [21]): 40
- Plant response rating, Morningglory (morningglory [11]; [24]): 80
- Plant response rating, Barnyardgrass (barnyardgrass [12]; [21]): 20
- Barnyardgrass plant response rating (barnyardgrass [12]; [23]): 30
- Plant response rating, Wheat (wheat [13]; [21]): 0
- Plant response rating, Wheat (wheat [13]; [24]): 20
- Plant response rating, Velvetleaf (velvetleaf [14]; [21]): 0
- Velvetleaf plant response rating (velvetleaf [14]; [25]): 20
- Plant response rating, Foxtail, Giant (giant foxtail [15]; [21]): 70
- Foxtail, Giant plant response rating (giant foxtail [15]; [25]): 100
- Plant response rating, Crabgrass, Large (large (Lg) crabgrass [16]; [21]): 90
- Crabgrass, Large plant response rating (large (Lg) crabgrass [16]; [23]): 100
- Plant response rating, Morningglory (morningglory [17]; [21]): 0
- Morningglory plant response rating (morningglory [17]; [25]): 0
